Results from PMC10882719 (Frontiers in Neuroscience, 2024).
Like-named read-outs stand apart in the source and are kept apart here.

Key:
Assay type in all cases: cell-based
168 GPCRs [1] = molecular target: T1, 168 GPCRs (Homo sapiens, UniProt Q9HC97)
T1 construct: host or cells: PathHunter cell lines

168 GPCRs [2] = molecular target: T2, 168 GPCRs (Homo sapiens, UniProt O43614)
T2 construct: host or cells: PathHunter cell lines
T2 sequence (O43614 1-444): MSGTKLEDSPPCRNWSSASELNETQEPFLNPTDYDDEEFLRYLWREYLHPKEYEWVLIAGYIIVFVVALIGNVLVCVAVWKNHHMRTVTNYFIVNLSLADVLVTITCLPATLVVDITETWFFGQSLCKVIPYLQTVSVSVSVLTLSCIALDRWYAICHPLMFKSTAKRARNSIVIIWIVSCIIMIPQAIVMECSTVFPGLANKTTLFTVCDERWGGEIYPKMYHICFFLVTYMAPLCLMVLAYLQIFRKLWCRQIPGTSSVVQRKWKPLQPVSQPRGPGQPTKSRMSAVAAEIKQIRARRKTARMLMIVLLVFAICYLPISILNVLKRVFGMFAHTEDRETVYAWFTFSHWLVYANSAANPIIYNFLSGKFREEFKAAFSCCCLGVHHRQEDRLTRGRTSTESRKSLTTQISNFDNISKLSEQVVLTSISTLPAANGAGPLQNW

168 GPCRs [3] = molecular target: T3, 168 GPCRs (Homo sapiens, UniProt P07550)
T3 construct: host or cells: PathHunter cell lines
T3 sequence (P07550 whole entry): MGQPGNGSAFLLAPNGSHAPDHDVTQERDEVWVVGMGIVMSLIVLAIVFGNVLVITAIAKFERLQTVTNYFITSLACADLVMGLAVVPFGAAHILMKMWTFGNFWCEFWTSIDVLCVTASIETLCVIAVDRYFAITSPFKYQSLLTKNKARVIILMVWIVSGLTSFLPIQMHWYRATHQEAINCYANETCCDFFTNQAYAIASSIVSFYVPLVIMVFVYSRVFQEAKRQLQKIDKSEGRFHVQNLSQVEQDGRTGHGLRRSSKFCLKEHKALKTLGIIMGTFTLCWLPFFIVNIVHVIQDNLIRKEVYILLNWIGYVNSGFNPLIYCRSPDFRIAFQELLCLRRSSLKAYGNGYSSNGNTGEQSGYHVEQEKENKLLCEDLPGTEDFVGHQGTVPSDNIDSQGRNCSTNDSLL

168 GPCRs [4] = molecular target: T4, 168 GPCRs (Homo sapiens, UniProt P0DMS8)
T4 construct: host or cells: PathHunter cell lines
T4 sequence (P0DMS8 1-318): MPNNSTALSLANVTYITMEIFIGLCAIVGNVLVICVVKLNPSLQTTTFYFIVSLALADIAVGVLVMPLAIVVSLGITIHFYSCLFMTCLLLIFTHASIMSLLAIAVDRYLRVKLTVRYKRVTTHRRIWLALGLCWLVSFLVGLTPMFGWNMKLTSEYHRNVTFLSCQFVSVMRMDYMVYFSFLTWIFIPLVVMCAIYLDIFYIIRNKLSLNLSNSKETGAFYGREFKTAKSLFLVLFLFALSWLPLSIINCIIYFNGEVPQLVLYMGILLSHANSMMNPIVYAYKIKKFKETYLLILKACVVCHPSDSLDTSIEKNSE

168 GPCRs [5] = molecular target: T5, 168 GPCRs (Homo sapiens, UniProt Q8TDS4); settings: GPR109A
T5 construct: host or cells: PathHunter cell lines
T5 sequence (Q8TDS4 whole entry): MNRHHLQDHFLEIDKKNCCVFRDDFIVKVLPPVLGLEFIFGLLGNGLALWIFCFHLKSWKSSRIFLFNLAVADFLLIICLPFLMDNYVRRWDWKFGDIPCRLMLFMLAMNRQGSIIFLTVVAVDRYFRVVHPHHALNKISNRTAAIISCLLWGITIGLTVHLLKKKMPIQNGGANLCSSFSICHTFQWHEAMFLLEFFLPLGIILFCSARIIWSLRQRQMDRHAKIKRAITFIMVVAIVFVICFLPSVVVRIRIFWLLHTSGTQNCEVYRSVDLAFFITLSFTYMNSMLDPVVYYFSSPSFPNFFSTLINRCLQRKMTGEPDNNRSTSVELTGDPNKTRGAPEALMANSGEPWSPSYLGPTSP

168 GPCRs [6] = molecular target: T6, 168 GPCRs (Homo sapiens, UniProt Q92847); settings: GHSR
T6 construct: host or cells: PathHunter cell lines
T6 sequence (Q92847 whole entry): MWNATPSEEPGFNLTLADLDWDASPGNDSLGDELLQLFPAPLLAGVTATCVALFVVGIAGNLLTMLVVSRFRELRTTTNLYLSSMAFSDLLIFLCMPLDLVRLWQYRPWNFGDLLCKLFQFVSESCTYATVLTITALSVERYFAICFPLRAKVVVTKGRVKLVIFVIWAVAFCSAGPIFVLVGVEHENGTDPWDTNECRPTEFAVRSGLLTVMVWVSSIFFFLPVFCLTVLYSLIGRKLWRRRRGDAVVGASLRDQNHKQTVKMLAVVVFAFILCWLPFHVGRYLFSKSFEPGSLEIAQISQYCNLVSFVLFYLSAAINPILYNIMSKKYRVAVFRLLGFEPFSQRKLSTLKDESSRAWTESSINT

168 GPCRs [7] = molecular target: T7, 168 GPCRs (Homo sapiens, UniProt P46663)
T7 construct: host or cells: PathHunter cell lines
T7 sequence (P46663 1-353): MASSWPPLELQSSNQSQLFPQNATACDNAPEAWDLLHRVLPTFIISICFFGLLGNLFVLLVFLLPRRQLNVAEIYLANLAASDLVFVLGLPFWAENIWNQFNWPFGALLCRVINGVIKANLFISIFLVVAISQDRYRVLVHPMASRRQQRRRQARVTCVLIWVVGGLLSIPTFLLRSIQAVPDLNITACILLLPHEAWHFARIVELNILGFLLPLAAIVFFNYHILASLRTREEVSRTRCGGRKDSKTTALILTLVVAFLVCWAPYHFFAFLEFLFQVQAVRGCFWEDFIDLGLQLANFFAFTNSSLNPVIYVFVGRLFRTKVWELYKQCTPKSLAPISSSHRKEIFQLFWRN

168 GPCRs [8] = molecular target: T8, 168 GPCRs (Homo sapiens, UniProt P47871); settings: GCGR
T8 construct: host or cells: PathHunter cell lines
T8 sequence (P47871 26-477): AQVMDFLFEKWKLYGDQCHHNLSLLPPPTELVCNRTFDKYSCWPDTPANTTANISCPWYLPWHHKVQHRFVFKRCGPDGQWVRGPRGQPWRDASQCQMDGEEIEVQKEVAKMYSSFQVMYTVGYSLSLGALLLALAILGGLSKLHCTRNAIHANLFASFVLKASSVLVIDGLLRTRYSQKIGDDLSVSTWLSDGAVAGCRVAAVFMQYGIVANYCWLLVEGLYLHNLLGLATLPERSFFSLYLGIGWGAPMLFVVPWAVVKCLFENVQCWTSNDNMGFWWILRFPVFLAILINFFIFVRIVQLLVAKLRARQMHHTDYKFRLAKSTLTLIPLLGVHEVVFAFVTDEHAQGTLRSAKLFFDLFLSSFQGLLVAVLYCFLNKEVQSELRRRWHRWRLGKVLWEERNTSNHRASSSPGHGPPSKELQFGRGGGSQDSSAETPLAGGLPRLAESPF

168 GPCRs [9] = molecular target: T9, 168 GPCRs (Homo sapiens, UniProt P43115); settings: PTGER3
T9 construct: host or cells: PathHunter cell lines
T9 sequence (P43115 1-390): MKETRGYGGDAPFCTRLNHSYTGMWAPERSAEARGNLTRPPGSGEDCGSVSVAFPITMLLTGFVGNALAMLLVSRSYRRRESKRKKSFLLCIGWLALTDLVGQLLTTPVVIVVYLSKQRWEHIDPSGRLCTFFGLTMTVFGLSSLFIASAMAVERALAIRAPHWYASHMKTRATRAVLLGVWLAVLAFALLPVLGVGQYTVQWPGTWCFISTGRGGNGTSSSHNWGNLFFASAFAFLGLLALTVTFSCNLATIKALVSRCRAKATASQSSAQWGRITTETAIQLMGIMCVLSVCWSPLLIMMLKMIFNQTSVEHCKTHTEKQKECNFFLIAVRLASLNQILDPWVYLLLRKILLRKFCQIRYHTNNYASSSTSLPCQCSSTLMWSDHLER

T1 sequence (Q9HC97 whole entry): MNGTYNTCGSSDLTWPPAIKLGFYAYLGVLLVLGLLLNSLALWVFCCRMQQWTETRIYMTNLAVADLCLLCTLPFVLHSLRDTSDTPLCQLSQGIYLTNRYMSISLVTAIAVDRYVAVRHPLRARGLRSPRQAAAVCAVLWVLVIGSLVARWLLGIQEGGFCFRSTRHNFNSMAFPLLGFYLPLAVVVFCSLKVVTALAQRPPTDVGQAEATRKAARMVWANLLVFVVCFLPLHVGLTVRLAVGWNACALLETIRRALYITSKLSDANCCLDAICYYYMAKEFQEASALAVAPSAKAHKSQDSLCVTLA

Row | SMILES | % Agonist Activity (168 GPCRs [1]; GPR35, 1 uM) [%] | % Antagonist Activity (168 GPCRs [1]; GPR35, 1 uM) [%] | % Agonist Activity (168 GPCRs [1]; GPR35, 10 uM) [%] | % Antagonist Activity (168 GPCRs [1]; GPR35, 10 uM) [%] | % Agonist Activity (168 GPCRs [2]; HCRTR2, 1 uM) [%] | % Antagonist Activity (168 GPCRs [2]; HCRTR2, 1 uM) [%] | % Agonist Activity (168 GPCRs [2]; HCRTR2, 10 uM) [%] | % Antagonist Activity (168 GPCRs [2]; HCRTR2, 10 uM) [%] | % Agonist Activity (168 GPCRs [3]; ADRB2, 1 uM) [%] | % Antagonist Activity (168 GPCRs [3]; ADRB2, 1 uM) [%] | % Agonist Activity (168 GPCRs [3]; ADRB2, 10 uM) [%] | % Antagonist Activity (168 GPCRs [3]; ADRB2, 10 uM) [%] | % Agonist Activity (168 GPCRs [4]; ADORA3, 1 uM) [%] | % Antagonist Activity (168 GPCRs [4]; ADORA3, 1 uM) [%] | % Agonist Activity (168 GPCRs [4]; ADORA3, 10 uM) [%] | % Antagonist Activity (168 GPCRs [4]; ADORA3, 10 uM) [%] | % Agonist Activity (168 GPCRs [5]; 1 uM) [%] | % Antagonist Activity (168 GPCRs [5]; 1 uM) [%] | % Agonist Activity (168 GPCRs [5]; 10 uM) [%] | % Antagonist Activity (168 GPCRs [5]; 10 uM) [%] | other results
1 | CNC(C)Cc1ccc2c(c1)OCO2 (stereo not drawn) [MDMA, 3,4-Methylenedioxy methamphetamine, reference compound] | 0.3 | -1.1 | -1.5 | 4.6 | -0.3 | 5.9 | -0.1 | -3.5 | 2 | 31.9 | 1.5 | 45.7 | 0.7 | -15.4 | 0.6 | -11.5 | -2.1 | 3.7 | 0.4 | 1 | % Agonist Activity (168 GPCRs [6]; 1 uM): 3%; % Antagonist Activity (168 GPCRs [6]; 1 uM): -30.8%; % Agonist Activity (168 GPCRs [6]; 10 uM): 3.1%; % Antagonist Activity (168 GPCRs [6]; 10 uM): -7%; % Agonist Activity (168 GPCRs [7]; BDKRB1, 1 uM): -1.2%; % Antagonist Activity (168 GPCRs [7]; BDKRB1, 1 uM): -17.1%; % Agonist Activity (168 GPCRs [7]; BDKRB1, 10 uM): -0.2%; % Antagonist Activity (168 GPCRs [7]; BDKRB1, 10 uM): -12.7%; % Agonist Activity (168 GPCRs [8]; 1 uM): -1%; % Antagonist Activity (168 GPCRs [8]; 1 uM): -1.7%; % Agonist Activity (168 GPCRs [8]; 10 uM): -0.9%; % Antagonist Activity (168 GPCRs [8]; 10 uM): -7.4%; % Agonist Activity (168 GPCRs [9]; Conc 1 uM): 3.5%; % Antagonist Activity (168 GPCRs [9]; Conc 1 uM): 5.2%; % Agonist Activity (168 GPCRs [9]; Conc 10 uM): 3.6%; % Antagonist Activity (168 GPCRs [9]; Conc 10 uM): 4.2%
2 | CNC(C)C(=O)c1ccc2c(c1)OCO2 (stereo not drawn) [methylone] | 2.2 | 13.2 | 2.5 | 7.3 | 0.2 | 6.4 | 0.2 | 2.4 | 0 | 18.1 | -0.2 | 20.4 | -4.5 | 11.3 | -5.3 | 7.7 | -8.7 | 1.4 | -4.3 | -0.3 | % Agonist Activity (168 GPCRs [6]; 1 uM): -6.6%; % Antagonist Activity (168 GPCRs [6]; 1 uM): 25.8%; % Agonist Activity (168 GPCRs [6]; 10 uM): -7.2%; % Antagonist Activity (168 GPCRs [6]; 10 uM): 9.1%; % Agonist Activity (168 GPCRs [7]; BDKRB1, 1 uM): -1.7%; % Antagonist Activity (168 GPCRs [7]; BDKRB1, 1 uM): 2.8%; % Agonist Activity (168 GPCRs [7]; BDKRB1, 10 uM): -2.5%; % Antagonist Activity (168 GPCRs [7]; BDKRB1, 10 uM): 12.1%; % Agonist Activity (168 GPCRs [8]; 1 uM): -2.3%; % Antagonist Activity (168 GPCRs [8]; 1 uM): -16%; % Agonist Activity (168 GPCRs [8]; 10 uM): -3%; % Antagonist Activity (168 GPCRs [8]; 10 uM): -7.7%; % Agonist Activity (168 GPCRs [9]; Conc 1 uM): 4.5%; % Antagonist Activity (168 GPCRs [9]; Conc 1 uM): -6.2%; % Agonist Activity (168 GPCRs [9]; Conc 10 uM): 1.9%; % Antagonist Activity (168 GPCRs [9]; Conc 10 uM): -5.7%
